The text below walks through data of US20050228007A1, “Isoquinoline derivatives and methods of use thereof” (priority 2004, published 2005).

For experiment [1], the target named is T1, PARS (Mus musculus, UniProt P11103).
T1 construct: Raw mouse macrophages were cultured in DMEM medium with high glucose; endogenous in cells; host or cells: RAW mouse macrophages
Kind of experiment: Cell protection assay, peroxynitrite-treated raw mouse macrophages. It counts as cell-based. Conditions: peroxynitrite 750 μM.

Experiment [2] addresses T1, PARS. Put plainly: PARS activation in peroxynitrite-treated cultured macrophages (whole-cell 3H-NAD+ assay). It counts as cell-based. The settings on record: cultured murine macrophages; for inhibition at 0.1 µM / % PARS inhibition at 100 nM: 100 nM; for inhibition at 0.3 µM / % PARS inhibition at 300 nM: 300 nM. Here is the method: Raw mouse macrophages were cultured in DMEM medium with high glucose and supplemented with 10% fetal bovine serum. Cells were used at 80% confluence in 12-well plates. Cells were pretreated with various concentrations (100 nM -1 µM) of an Isoquinoline Derivative for 10 min. Peroxynitrite, a prototypical oxidant which induces DNA single strand breakage, was used to induce PARS activation. Peroxynitrite was diluted in phosphate buffered saline (PBS) (pH 11.0) and added to the cells in a bolus of 50 μl. Cells were then incubated for 20 min. […] After the 20 min incubation, the cells were spun, the medium was aspirated and the cells were resuspended in 0.5 ml assay buffer (56 mM HEPES pH 7.5, 28 mM KCl, 28 mM NaCl, 2 mM MgCl2, 0.01% w/v digitonin and 0.125 μM NAD^+ and 0.5 μCi/ml ^3H-NAD^+). Following an incubation in assay buffer, (10 min at 37° C.), PARS activity was measured as follows: 200 μl ice cold 50% w/v TCA was added and the samples were incubated for 4 hours at 4° C. Samples were then spun (10 min @ 10,000 g) and pellets washed twice with ice cold 5% w/v TCA and solubilized overnight in 250 μl 2% w/v SDS/0.1 N NaOH at 37° C. The contents of the tubes were added to 6.5 ml ScintiSafe Plus scintillation liquid (Fisher Scientific) and radioactivity was determined using a liquid scintillation counter (Wallac, Gaithersburg, Md.).

T1 sequence (P11103 whole entry): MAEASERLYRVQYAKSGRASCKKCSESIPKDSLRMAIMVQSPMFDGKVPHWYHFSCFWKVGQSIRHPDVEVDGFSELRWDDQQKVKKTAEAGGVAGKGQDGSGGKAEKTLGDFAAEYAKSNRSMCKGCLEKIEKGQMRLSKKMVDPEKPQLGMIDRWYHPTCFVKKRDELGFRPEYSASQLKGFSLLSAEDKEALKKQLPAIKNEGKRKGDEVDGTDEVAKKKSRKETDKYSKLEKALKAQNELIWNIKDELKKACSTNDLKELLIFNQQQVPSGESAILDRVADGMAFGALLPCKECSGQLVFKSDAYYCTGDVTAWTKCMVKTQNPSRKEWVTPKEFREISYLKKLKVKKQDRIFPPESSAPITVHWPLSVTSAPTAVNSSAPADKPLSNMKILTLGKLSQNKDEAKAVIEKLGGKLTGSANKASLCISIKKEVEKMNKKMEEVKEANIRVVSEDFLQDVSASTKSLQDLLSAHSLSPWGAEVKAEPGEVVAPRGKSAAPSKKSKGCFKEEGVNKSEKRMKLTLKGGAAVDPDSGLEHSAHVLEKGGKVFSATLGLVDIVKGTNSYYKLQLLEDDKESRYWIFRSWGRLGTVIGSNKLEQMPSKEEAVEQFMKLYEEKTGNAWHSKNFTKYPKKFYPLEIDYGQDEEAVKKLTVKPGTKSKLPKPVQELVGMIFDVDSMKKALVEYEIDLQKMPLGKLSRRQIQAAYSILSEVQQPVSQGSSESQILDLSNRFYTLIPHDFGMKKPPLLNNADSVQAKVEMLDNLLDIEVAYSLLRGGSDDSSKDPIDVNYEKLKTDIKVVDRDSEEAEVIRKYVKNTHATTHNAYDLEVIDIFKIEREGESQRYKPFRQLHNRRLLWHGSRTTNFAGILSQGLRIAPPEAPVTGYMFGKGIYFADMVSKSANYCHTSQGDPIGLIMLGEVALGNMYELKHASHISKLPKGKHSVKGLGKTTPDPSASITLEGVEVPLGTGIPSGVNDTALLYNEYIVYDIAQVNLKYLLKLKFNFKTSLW

As for `O=c1[nH]c2c(c3ccccc13)Cc1cc(F)ccc1-2` [Compound 100], the EC50 (usually the midpoint of the concentration-response curve) on PARS [1] was found to be 0.18 µM.
As to `CN(C)CCNS(=O)(=O)c1ccc2c(c1)Cc1c-2[nH]c(=O)c2ccccc12` [Compound 8g, 9-[N-(2-[N,N-dimethylamino]ethyl)aminosulphonyl]-5,6-dihydro-5-oxo-11H-indeno[1,2-c]isoquinoline], at PARS [2], at 0.1 µM the inhibition was 34% and the inhibition (usually the percentage by which the read-out fell short of the control) at 0.3 µM is 55%.
Molecule `O=S(=O)(NCCCN1CCOCC1)c1cc2c(cc1F)-c1nc(O)c3ccccc3c1C2` [Compound 107] displayed an EC50 on PARS [1] of 0.01 µM.
With `O=c1[nH]c2c(c3ccccc13)Cc1ccccc1-2` [Compound 6, 5,6-dihydro-5-oxo-11H-indeno[1,2-c]isoquinoline], at PARS [2], the inhibition at 0.1 µM came out at 30% and the inhibition at 1 µM was determined as 65%.
`O=S(=O)(O)c1ccc2c(c1)Cc1c-2nc(O)c2ccccc12` [Compound 110] had an EC50 on PARS [1] of 0.625 µM.
`O=c1[nH]c2c3ccccc3[nH]c2c2ccccc12` [Compound 31, 6H,11H-Indolo[3,2-c]Isoquinoline-5-one] gave an inhibition at 0.1 µM at PARS [2] of 18%.
For `CC1(O)c2ccccc2-c2[nH]c(=O)c3ccccc3c21` (racemic) [Compound 3b, (±) 11-hydroxy-11-methyl-5,6-dihydro-5-oxo-11H-indeno[1,2-c]isoquinoline], at PARS [2], at 0.3 µM the inhibition was 0% and the inhibition at 1 µM was found to be 25%.
In the case of `CN1CCN(CCCNS(=O)(=O)c2ccc3c(c2)Cc2c-3[nH]c(=O)c3ccccc23)CC1` [Compound 8o, 9-[N-[3-(4-methylpiperazino-1-yl]propyl)-aminosulphonyl]-5,6-dihydro-5-oxo-11H-indeno-[1,2c]isoquinoline], on PARS [2], the “% PARS inhibition at 100 nM” value is reported as 48% and the “% PARS inhibition at 300 nM” value was 55%.
As to `CN(C)C1c2ccccc2-c2[nH]c(=O)c3ccccc3c21` (racemic) [Compound 5a, (±) 11-N,N-dimethylamino-5,6-dihydro-5-oxo-11H-indeno[1,2-c]isoquinoline], at PARS [2], the “% PARS inhibition at 100 nM” value turned out to be 10% and the “% PARS inhibition at 1 μM” value is given as 55%.
`CCCNC(=O)Nc1ccc2c(c1)Cc1c-2[nH]c(=O)c2ccccc12` [Compound 105] registered an EC50 on PARS [1] of 0.08 µM.
With `O=c1[nH]c2c(c3ccccc13)Cc1cc(S(=O)(=O)N3CCCC3CO)ccc1-2` (stereo not shown) [Compound 8e, 9-[N-(2-hydroxyprolinyl)sulphonyl]-5,6-dihydro-5-oxo-11H-indeno[1,2-c]isoquinoline], at PARS [2], the “% PARS inhibition at 300 nM” value was determined as 68%.
In the case of `O=c1[nH]c2c(c3ccccc13)C(N1CCOCC1)c1ccccc1-2` (racemic) [Compound 5e, (±) 11-morpholino-5,6-dihydro-5-oxo-11H-indeno[1,2-c]isoquinoline], at PARS [2], testing at 0.1 µM gave an inhibition of 0% and 1 µM produced 21% inhibition.
Consider `CCN(CC)C1c2ccccc2-c2[nH]c(=O)c3ccccc3c21` (racemic) [Compound 5b, (±) 11diethylamino-5,6-dihydro-5-oxo-11H-indeno[1,2-c]isoquinoline], for which, on PARS [2], the inhibition at 0.1 µM was found to be 0% and 1 µM produced 33% inhibition.
On to `O=c1[nH]c2c(c3ccccc13)Cc1cc(S(=O)(=O)NCCCN3CCCC3)ccc1-2` [Compound 8m, 9-[N-(3-[tetrahydropyrrolodino-1-yl]propyl)aminosulphonyl]-5,6-dihydro-5-oxo-11H-indeno-[1,2-c]isoquinoline], for which the “% PARS inhibition at 300 nM” value at PARS [2] was 50%.
Consider `CN1CCN(S(=O)(=O)c2ccc3c(c2)Cc2c-3[nH]c(=O)c3ccccc23)CC1` [Compound 8a, 9-[N-(4-methylpiperazine-1-yl)sulphonyl]-5,6-dihydro-5-oxo-11H-indeno-[1,2-c]isoquinoline], for which the “% PARS inhibition at 300 nM” value at PARS [2] came out at 47%.
On PARS [2], `O=c1[nH]c2c(c3ccccc13)Cc1cc(S(=O)(=O)Cl)ccc1-2` [Compound 7, 9-chlorosulfonyl-5,6-dihydro-5-oxo-11H-indeno[1,2-c]isoquinoline] displayed an inhibition at 0.1 µM of 0% and an inhibition at 1 µM of 50%.
At PARS [2], `O=C1c2ccccc2-c2[nH]c(=O)c3ccccc3c21` [Compound 2, 5,6-dihydro-5,11-diketo-11H-indeno[1,2-c]isoquinoline] came in with an inhibition at 0.1 µM of 16% and an inhibition at 1 µM of 60%.
On the same counts, the results for `O=c1[nH]c2c(c3ccccc13)C(Br)c1ccccc1-2` (racemic) [Compound 4b, (±) 11-bromo-5,6-dihydro-5-oxo-11H-indeno[1,2-c]isoquinoline] are 51% and 88%.
For the molecule `O=c1[nH]c2c(c3ccccc13)Cc1cc(S(=O)(=O)N(CCN(CCO)CCO)CCN(CCO)CCO)ccc1-2` [Compound 8r, 9-[N,N-di(2[N,N-dihydroxyethylamino]ethyl)-aminosulphonyl]-5,6-dihydro-5-oxo-11H-indeno-[1,2c]isoquinoline], on PARS [2], the “% PARS inhibition at 100 nM” value is recorded as 20% and the “% PARS inhibition at 300 nM” value stood at 28%.
In the case of `O=c1[nH]c2c(c3ccccc13)Cc1cc(S(=O)(=O)NCCN3CCCCC3)ccc1-2` [Compound 8h, 9-[N-(2-[piperidino-1-yl]ethyl)-aminosulphonyl]-5,6-dihydro-5-oxo-11H-indeno[1,2-c]isoquinoline], on PARS [2], the “% PARS inhibition at 100 nM” value was found to be 56% and the “% PARS inhibition at 300 nM” value is given as 76%.
`Nc1ccc2c(c1)Cc1c-2[nH]c(=O)c2ccccc12` [Compound 102, 5,6-Dihydro-5-oxo-9-amino-indeno[1,2-c]isoquinoline] yielded a concentration for a half-maximal effect (EC50) on PARS [1] of 0.095 µM.
On PARS [1], `O=C(CO)Nc1ccc2c(c1)Cc1c-2[nH]c(=O)c2ccccc12` [Compound 104] had an EC50 of 0.065 µM.
On PARS [2], `O=c1[nH]c2c3cc(O)ccc3oc2c2ccccc12` [Compound 23a, 8-Hydroxy-6H-11-oxa-6-aza-benzo[a]fluoren-5-one] returned an inhibition at 0.1 µM of 34%, an inhibition at 0.3 µM of 79% and an inhibition at 1 µM of 84%.
Regarding `O=c1[nH]c2c3ccc(O)cc3oc2c2ccccc12` [Compound 23b], on PARS [2], testing at 0.1 µM gave an inhibition of 53%, the inhibition at 0.3 µM worked out at 57% and the inhibition at 1 µM is 58%.
As to `CN(C)CCN(CCN(C)C)S(=O)(=O)c1ccc2c(c1)Cc1c-2[nH]c(=O)c2ccccc12` [Compound 8q, 9-[N,N di-(2-[N,N dimethylamino]ethyl)aminosulphonyl]-5,6-dihydro-5-oxo-11H-indeno-[1,2-c]isoquinoline], on PARS [2], the “% PARS inhibition at 100 nM” value was 20% and the “% PARS inhibition at 300 nM” value is listed as 28%.
Turning to `O=c1[nH]c2c(c3ccccc13)C(N1CCCCC1)c1ccccc1-2` (stereo not shown) [Compound 5d, 11-(piperidin)-5,6-dihydro-5-oxo-11H-indeno[1,2-c]isoquinoline], on PARS [2], the “% PARS inhibition at 100 nM” value was 0% and the “% PARS inhibition at 1 μM” value worked out at 48%.
At PARS [2], `COc1cccc(C2(O)c3ccccc3-c3[nH]c(=O)c4ccccc4c32)c1` (racemic) [Compound 3c, (±) 11-hydroxy-11-(m-methoxyphenyl)-5,6-dihydro-5-oxo-11H-indeno[1,2-c]isoquinoline] yielded an inhibition at 0.3 µM of 9% and an inhibition at 1 µM of 21%.
As to `O=c1[nH]c2c(c3ccccc13)Cc1cc(S(=O)(=O)N3CCN(CCO)CC3)ccc1-2` [Compound 8c, 9-[N-4-(2-hydroxyethylpiperazino-1-yl)-sulphonyl]-5,6-dihydro-5-oxo-1H-indeno-[1,2-c]isoquinoline], at PARS [2], the “% PARS inhibition at 300 nM” value is reported as 27%.
At PARS [2], `O=c1[nH]c2c(c3ccccc13)C(O)c1ccccc1-2` (racemic) [Compound 3a, (±) 11-hydroxy-5,6-dihydro-5-oxo-11H-indeno[1,2-c]isoquinoline] had an inhibition at 0.1 µM of 8% and an inhibition at 1 µM of 67%.
`Oc1nc2c(c3ccccc13)Cc1ccc(F)cc1-2` [Compound 99] came in with a 50% effective concentration (EC50) at PARS [1] of 0.225 µM.
For `COc1ccc2oc3c4ccccc4c(=O)[nH]c3c2c1` [Compound 22a], at PARS [2], the “% PARS inhibition at 100 nM” value is 51% and the “% PARS inhibition at 1 μM” value was 81%.
As to `CN1CCN(C2c3ccccc3-c3[nH]c(=O)c4ccccc4c32)CC1` (racemic) [Compound 5c, (±) 11-(N-methylpiperazin)-5,6-dihydro-5-oxo-11H-indeno[1,2-c]isoquinoline], at PARS [2], the “% PARS inhibition at 100 nM” value is reported as 0% and the “% PARS inhibition at 1 μM” value is 24%.
On to `O=c1[nH]c2c(c3ccccc13)Cc1cc(S(=O)(=O)n3ccnc3)ccc1-2` [Compound 8d, 9-[N-(imidazolo-1-yl)sulphonyl]-5,6-dihydro-5-oxo-11H-isoquinoline], for which, on PARS [2], the “% PARS inhibition at 100 nM” value is on record as 77% and the “% PARS inhibition at 300 nM” value stood at 82%.
On PARS [2], `NS(=O)(=O)c1ccc2c3[nH]c(=O)c4ccccc4c3n(S(N)(=O)=O)c2c1` [Compound 35a, 6H,11H-Indolo[3,2-c]Isoquinoline-5-one-9,11-disulfonamide] displayed an inhibition at 0.1 µM of 14% and an inhibition at 1 µM of 75%.
